Assay in all cases: pIC50, kinobeads binding competition
The target in one test is UniProt P78527. In short, it runs like this: (§1)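 pIC50 was obtained by fitting fold changes against vehicle to logistic dose-response curves with the R drc package, using biological duplicates. Kinobeads-bound proteins were digested and measured by TMT10 LC-MS/MS. Before this, either living Jurkat cells received nine compound concentrations (top 30 μM, 1:4 steps) for 60 min at 37 °C prior to lysis, or Jurkat lysate or a 1:1:1:1 HEK293/K-562/HepG2/placenta lysate mix received nine concentrations (top 30 μM, 1:5 steps) for 60 min at 4 °C.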
Sequence of UniProt P78527 (P78527 whole entry): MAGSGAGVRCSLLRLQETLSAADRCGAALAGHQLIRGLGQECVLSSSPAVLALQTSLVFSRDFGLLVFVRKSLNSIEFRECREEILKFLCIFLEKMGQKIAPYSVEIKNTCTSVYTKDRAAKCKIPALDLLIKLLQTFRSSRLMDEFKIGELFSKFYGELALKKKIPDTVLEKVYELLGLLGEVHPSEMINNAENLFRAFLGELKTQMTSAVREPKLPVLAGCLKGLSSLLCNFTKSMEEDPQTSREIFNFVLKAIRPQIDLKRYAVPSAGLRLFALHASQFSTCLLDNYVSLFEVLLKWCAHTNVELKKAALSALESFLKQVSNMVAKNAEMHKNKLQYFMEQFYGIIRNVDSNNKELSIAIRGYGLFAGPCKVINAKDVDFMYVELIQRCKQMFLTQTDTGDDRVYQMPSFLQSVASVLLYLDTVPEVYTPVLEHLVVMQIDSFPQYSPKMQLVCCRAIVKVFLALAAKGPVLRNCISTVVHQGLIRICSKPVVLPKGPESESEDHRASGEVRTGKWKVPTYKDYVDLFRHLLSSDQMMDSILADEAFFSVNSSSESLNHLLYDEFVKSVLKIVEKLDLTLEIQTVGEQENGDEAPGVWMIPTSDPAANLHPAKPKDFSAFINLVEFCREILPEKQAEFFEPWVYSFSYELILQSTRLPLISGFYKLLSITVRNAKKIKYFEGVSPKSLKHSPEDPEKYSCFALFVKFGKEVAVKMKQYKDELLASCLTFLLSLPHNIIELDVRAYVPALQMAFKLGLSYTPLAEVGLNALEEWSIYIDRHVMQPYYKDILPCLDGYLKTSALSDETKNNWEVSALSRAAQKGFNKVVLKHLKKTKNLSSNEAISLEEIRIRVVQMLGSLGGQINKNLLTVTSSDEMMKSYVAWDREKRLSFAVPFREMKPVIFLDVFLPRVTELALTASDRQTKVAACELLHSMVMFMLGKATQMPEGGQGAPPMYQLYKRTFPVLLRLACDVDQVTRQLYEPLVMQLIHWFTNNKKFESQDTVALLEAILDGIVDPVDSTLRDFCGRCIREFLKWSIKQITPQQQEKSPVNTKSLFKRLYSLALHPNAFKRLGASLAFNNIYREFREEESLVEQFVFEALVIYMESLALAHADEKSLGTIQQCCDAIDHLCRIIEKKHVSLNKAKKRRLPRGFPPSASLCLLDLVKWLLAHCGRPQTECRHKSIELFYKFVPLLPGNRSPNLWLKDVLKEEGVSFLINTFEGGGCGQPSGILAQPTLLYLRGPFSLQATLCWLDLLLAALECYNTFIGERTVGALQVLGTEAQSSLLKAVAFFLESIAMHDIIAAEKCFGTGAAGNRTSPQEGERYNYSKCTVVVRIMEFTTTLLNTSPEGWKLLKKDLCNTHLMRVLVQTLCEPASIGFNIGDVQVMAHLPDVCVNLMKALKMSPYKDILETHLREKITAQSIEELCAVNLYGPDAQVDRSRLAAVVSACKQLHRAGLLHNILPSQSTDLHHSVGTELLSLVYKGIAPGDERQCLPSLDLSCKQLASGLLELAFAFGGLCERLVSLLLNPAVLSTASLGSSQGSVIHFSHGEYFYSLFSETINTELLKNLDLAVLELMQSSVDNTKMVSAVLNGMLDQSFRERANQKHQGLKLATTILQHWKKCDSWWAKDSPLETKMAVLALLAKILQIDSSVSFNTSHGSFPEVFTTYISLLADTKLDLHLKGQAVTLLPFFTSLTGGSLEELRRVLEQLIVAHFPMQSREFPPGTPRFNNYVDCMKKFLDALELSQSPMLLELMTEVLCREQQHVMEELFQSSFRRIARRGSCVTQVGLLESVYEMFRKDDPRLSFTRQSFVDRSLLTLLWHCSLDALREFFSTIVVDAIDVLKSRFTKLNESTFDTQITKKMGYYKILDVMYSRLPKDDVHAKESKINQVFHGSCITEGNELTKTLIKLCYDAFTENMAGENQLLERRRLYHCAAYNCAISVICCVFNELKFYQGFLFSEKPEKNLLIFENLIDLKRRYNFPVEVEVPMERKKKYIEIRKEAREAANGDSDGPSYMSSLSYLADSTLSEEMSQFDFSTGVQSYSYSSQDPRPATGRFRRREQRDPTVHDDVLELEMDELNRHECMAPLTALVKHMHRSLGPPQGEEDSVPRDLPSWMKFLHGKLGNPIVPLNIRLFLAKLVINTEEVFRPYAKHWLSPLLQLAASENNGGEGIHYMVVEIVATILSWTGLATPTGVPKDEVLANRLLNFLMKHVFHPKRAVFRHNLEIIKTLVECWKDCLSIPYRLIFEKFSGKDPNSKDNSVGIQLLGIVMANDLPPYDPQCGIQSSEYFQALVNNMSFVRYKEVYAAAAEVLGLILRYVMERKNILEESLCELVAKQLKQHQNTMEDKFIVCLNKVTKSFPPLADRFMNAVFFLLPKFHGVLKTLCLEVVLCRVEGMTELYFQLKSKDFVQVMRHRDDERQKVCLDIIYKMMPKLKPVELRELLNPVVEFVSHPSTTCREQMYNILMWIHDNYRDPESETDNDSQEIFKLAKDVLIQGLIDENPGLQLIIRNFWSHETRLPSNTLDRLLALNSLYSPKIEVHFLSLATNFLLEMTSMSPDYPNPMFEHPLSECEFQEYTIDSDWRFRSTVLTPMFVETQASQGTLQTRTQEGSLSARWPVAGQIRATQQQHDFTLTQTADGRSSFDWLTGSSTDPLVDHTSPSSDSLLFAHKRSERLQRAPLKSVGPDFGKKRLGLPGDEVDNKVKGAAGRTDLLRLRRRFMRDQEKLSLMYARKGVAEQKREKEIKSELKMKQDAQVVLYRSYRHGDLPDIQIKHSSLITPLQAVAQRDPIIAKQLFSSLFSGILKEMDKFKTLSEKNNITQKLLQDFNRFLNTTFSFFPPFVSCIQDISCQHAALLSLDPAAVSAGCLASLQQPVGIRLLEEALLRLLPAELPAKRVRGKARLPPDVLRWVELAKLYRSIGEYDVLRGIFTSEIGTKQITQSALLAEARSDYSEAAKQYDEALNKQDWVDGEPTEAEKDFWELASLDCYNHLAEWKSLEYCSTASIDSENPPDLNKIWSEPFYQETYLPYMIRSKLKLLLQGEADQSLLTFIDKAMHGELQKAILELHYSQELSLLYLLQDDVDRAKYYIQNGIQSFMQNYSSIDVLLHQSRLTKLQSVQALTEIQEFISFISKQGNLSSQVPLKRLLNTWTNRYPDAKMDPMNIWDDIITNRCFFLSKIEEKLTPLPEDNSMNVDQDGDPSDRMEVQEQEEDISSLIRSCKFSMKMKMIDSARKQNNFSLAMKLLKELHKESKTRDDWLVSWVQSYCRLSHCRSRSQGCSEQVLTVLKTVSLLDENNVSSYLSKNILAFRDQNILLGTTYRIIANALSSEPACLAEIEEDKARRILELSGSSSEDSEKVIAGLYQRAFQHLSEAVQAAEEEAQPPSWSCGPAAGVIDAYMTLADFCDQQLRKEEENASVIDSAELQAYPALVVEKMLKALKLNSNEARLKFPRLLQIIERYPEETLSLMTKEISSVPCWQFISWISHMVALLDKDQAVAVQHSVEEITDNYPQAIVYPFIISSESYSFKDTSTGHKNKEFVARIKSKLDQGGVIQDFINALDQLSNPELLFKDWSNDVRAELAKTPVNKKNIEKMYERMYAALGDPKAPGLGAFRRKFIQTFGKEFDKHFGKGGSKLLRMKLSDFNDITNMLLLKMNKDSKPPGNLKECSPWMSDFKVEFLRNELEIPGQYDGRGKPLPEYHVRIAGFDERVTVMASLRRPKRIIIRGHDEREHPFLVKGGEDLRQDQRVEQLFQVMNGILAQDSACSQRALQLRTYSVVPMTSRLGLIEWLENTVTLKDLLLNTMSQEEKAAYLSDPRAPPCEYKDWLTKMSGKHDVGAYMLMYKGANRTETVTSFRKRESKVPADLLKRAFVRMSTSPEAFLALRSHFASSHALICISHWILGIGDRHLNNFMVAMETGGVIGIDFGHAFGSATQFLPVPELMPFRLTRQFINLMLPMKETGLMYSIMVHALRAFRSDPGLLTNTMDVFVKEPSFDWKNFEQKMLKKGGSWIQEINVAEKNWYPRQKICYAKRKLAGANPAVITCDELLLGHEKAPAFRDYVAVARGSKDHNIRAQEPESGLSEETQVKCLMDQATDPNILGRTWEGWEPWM

A further test addresses FER (UniProt P16591). In short, it runs like this:
as §1

The target of a further test is T1, NEK9 (UniProt Q8TD19).
T1 sequence (whole entry): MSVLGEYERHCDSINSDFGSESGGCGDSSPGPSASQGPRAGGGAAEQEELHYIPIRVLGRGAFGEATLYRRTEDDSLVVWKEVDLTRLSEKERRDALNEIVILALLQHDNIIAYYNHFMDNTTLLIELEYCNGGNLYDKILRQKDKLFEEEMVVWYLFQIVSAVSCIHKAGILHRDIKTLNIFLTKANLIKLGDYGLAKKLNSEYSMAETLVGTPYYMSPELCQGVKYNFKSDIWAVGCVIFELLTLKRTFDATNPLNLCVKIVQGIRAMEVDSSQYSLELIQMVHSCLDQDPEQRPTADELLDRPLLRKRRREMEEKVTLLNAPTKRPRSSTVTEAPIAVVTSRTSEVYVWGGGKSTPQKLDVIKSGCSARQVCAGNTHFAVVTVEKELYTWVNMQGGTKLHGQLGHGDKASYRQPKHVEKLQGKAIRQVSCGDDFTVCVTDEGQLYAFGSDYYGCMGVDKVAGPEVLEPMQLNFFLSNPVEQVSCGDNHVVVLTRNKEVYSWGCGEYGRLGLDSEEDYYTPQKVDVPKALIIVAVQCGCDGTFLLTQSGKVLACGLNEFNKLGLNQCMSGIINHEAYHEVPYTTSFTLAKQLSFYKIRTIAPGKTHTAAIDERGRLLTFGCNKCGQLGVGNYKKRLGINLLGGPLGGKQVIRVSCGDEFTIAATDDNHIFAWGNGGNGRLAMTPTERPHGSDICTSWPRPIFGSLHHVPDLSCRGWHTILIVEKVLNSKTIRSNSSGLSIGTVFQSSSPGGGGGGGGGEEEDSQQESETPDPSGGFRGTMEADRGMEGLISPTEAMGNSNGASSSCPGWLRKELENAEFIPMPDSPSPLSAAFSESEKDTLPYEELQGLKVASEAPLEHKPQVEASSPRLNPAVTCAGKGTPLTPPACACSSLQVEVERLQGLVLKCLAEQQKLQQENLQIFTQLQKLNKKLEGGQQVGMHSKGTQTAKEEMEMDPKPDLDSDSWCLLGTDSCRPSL
The procedure, abridged: as §1

A further test deals with HIPK3 (UniProt Q9H422). The procedure, abridged: as §1
The next test deals with T2, NEK3 (UniProt P51956).
T2 sequence (whole entry): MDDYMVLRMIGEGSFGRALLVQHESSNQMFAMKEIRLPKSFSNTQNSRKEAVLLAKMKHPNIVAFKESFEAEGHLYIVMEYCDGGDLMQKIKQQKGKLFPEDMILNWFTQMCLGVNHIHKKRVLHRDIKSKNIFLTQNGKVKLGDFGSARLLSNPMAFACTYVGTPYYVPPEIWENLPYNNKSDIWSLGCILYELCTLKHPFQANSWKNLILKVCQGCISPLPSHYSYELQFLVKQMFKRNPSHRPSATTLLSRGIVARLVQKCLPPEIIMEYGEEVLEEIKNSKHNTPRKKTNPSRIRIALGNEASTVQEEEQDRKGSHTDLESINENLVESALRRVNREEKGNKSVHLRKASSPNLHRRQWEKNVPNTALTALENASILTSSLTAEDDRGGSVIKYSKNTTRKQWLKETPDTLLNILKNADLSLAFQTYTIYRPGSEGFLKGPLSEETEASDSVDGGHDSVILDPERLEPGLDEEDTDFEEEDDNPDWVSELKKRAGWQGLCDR
The procedure, abridged: as §1

A further test addresses UniProt Q13131. The procedure, abridged:
as §1

Sequence of FER (P16591 whole entry, looked up): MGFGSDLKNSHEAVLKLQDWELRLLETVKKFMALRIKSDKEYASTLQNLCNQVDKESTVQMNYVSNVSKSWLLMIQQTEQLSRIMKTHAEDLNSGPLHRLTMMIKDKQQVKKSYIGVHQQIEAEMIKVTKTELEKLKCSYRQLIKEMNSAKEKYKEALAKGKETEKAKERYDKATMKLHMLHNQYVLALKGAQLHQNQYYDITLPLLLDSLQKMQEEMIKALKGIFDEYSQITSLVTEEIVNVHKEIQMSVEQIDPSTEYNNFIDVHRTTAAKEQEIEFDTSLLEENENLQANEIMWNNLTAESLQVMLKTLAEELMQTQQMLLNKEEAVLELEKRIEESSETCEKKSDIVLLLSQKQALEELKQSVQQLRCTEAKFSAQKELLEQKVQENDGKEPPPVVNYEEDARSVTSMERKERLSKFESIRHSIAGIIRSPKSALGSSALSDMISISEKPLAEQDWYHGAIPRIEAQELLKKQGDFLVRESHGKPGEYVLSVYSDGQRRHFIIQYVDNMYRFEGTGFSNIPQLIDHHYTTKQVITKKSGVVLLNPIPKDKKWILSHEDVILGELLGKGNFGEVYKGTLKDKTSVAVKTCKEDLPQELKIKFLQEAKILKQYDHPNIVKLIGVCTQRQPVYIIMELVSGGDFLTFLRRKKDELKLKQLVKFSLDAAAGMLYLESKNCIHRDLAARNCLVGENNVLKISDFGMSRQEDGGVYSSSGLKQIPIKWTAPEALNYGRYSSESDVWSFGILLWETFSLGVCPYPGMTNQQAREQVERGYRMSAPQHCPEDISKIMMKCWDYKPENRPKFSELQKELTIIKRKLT

The pIC50 is the IC50 on a negative log10 scale, so that one unit is a factor of ten. `Cc1cc(Nc2cc(C(=O)NCCNC(=O)OC3CC/C=C/CCC3)nc(N3CCN(Cc4ccc(S(=O)(=O)F)cc4)CC3)n2)n[nH]1` (stereo not drawn): the pIC50 at UniProt P78527 (cell material: Lysate mix) is below 4.52; on FER (cell material: Lysate mix), below 4.52; on NEK9 (cell material: Lysate mix) it was 5.2; on HIPK3 (cell material: Lysate mix), below 4.52; at NEK3 (cell material: Lysate mix), below 4.52; on UniProt Q13131 (cell material: Lysate mix), 5.24.
In the case of `C#CCNC(=O)c1cc(Nc2cc(C3CC3)[nH]n2)nc(N2CCN(Cc3ccc(S(=O)(=O)F)cc3)CC2)n1`, the pIC50 was below 4.52 at UniProt P78527 (cell material: Jurkat cells); below 4.52 at UniProt P78527 (cell material: Jurkat lysate); below 4.52 at UniProt P78527 (cell material: Lysate mix); 6.2 on FER (cell material: Jurkat cells); 5.44 on FER (cell material: Jurkat lysate); 5.92 on FER (cell material: Lysate mix). The negative logarithm of the IC50 (pIC50) came out at 6.87 on NEK9 (cell material: Jurkat cells); 6.66 at NEK9 (cell material: Jurkat lysate); 7.48 on NEK9 (cell material: Lysate mix); 5.92 on HIPK3 (cell material: Jurkat cells); 4.89 on HIPK3 (cell material: Jurkat lysate); 5.76 on HIPK3 (cell material: Lysate mix). Moreover, the pIC50 at NEK3 (cell material: Jurkat lysate) came to 4.66; at NEK3 (cell material: Lysate mix), 5.7; on UniProt Q13131 (cell material: Jurkat cells), 6.64; at UniProt Q13131 (cell material: Jurkat lysate), 6.58; at UniProt Q13131 (cell material: Lysate mix), 7.2.
As for `CCNC(=O)c1cc(Nc2cc(C3CC3)[nH]n2)nc(N2CCN(Cc3ccc(S(=O)(=O)F)cc3)CC2)n1`, the pIC50 on UniProt P78527 (cell material: Lysate mix) is below 4.52; at FER (cell material: Lysate mix), 5.62; on NEK9 (cell material: Lysate mix), 7.29; on HIPK3 (cell material: Lysate mix), 5.74; at NEK3 (cell material: Lysate mix), 5.46; at UniProt Q13131 (cell material: Lysate mix), 7.03.
Regarding `C#CCNC(=O)c1cc(Nc2cc(C)[nH]n2)nc(N2CCN(Cc3ccc(S(=O)(=O)F)cc3)CC2)n1`, the pIC50 at UniProt P78527 (cell material: Lysate mix) is below 4.52; on FER (cell material: Lysate mix), 4.78; on NEK9 (cell material: Lysate mix), 6.52; at HIPK3 (cell material: Lysate mix) it was 4.76; on NEK3 (cell material: Lysate mix), below 4.52; on UniProt Q13131 (cell material: Lysate mix) it was 6.3.
With `O=C(NCCNC(=O)c1cc(Nc2cc(C3CC3)[nH]n2)nc(N2CCN(Cc3ccc(S(=O)(=O)F)cc3)CC2)n1)OC1CC/C=C/CCC1` (stereo not drawn), the negative logarithm of the IC50 (pIC50) was below 4.52 on UniProt P78527 (cell material: Jurkat cells); below 4.52 on UniProt P78527 (cell material: Jurkat lysate); below 4.52 on UniProt P78527 (cell material: Lysate mix); 5.6 on FER (cell material: Jurkat cells); below 4.52 on FER (cell material: Jurkat lysate); below 4.52 on FER (cell material: Lysate mix). For the same compound, the pIC50 at NEK9 (cell material: Jurkat cells) was 6.9; at NEK9 (cell material: Jurkat lysate) it was 5.24; at NEK9 (cell material: Lysate mix) it was 5.56; at HIPK3 (cell material: Jurkat cells) it was 5.22; on HIPK3 (cell material: Jurkat lysate), below 4.52; at HIPK3 (cell material: Lysate mix) it was below 4.52. Also, the pIC50 at NEK3 (cell material: Jurkat cells) was 5.56; on NEK3 (cell material: Lysate mix) it was below 4.52; on UniProt Q13131 (cell material: Jurkat cells) it was 6.8; on UniProt Q13131 (cell material: Jurkat lysate), 5.32; at UniProt Q13131 (cell material: Lysate mix), 5.56.
As to `CCNC(=O)c1cc(Nc2cc(C)[nH]n2)nc(N2CCN(Cc3ccc(S(=O)(=O)F)cc3)CC2)n1`, the pIC50 was below 4.52 on UniProt P78527 (cell material: Lysate mix); 4.72 on FER (cell material: Lysate mix); 7.27 at NEK9 (cell material: Lysate mix); 4.62 at HIPK3 (cell material: Lysate mix); below 4.52 at NEK3 (cell material: Lysate mix); 6.97 on UniProt Q13131 (cell material: Lysate mix).

The values above are taken from the supplement of paper PMC12076712.
